This note sets out measurements from US20150361087A1, “ANTIVIRAL COMPOUNDS” (Gilead Sciences, Inc., priority 2014, published 2015).

Where two headings read alike, the source gives them in different places.

The test system of one series is 3a Y93H. In words: Replicon assay against resistance mutant 3a Y93H. It counts as cell-based, HCV.
Series [1] has as its system Y93H in genotype 1a NS5A (1a Pi-Rluc replicon). The experiment in a line: Replicon assay against resistance mutant 1a Y93H. It counts as cell-based, HCV. As to the method: (§1) Evaluation of cell-based anti-HCV activity: Antiviral potency (EC50) was determined using a Renilla luciferase (RLuc)-based HCV replicon reporter assay. To perform the assay for genotype 1 and 2a JFH-1, stable HCV 1a RLuc replicon cells (harboring a dicistronic genotype 1a H77 replicon that encodes a RLuc reporter), stable HCV 1b RLuc replicon cells (harboring a dicistronic genotype 1b Conl replicon that encodes a RLuc reporter), or stable HCV 2a JFH-1 Rluc replicon cells (harboring a dicistronic genotype 2a JFH-1 replicon that encodes a RLuc reporter; with L31 present in NS5A) were dispensed into 384-well plates for EC50 assays. To perform the assay for genotype 2a (with M31 present in NS5A) or 2b, NS5A chimeric genotype 2a JFH-1 replicons that encodes a RLuc-Neo reporter and either genotype 2a J6 strain NS5A gene or genotype 2b MD2b-1 strain NS5A gene (both with M31 present) respectively, were either transiently transfected (t) into Huh-Lunet cells or were established as stably replicating replicon cells (s) is provided. Either cells were dispensed into 384-well plates for EC50 assays. To perform the assay for genotype 3 and 4, NS5A chimeric genotype 1b Conl replicons that encodes a Pi-RLuc reporter and either genotype 3a S52 strain NS5A gene or genotype 4a ED43 strain NS5A gene respectively, were transiently transfected (t) into Huh-Lunet cells, which were subsequently dispensed into 384-well plates. […] 72 hours later, cells were lysed and Renilla luciferase activity quantified as recommended by the manufacturer (Promega-Madison, Wis.). […]
(§2) To determine the antiviral potency (EC50) against resistance mutants, resistance mutations, including Q30R, Q30E, Y93H, and Y93N in genotype 1a NS5A, and L31V/Y93H in genotype 1b NS5A were introduced individually into either 1a Pi-Rluc or 1b Pi-Rluc replicons by site directed mutagenesis. Replicon RNA of each resistant mutant was transiently transfected into Huh-7-derived cured-51 cells and antiviral potency was determined on these transfected cells as described above.

Series [2] deals with NS5A chimeric genotype 1b Conl replicon with genotype 4a ED43 strain NS5A gene. In words: Renilla luciferase HCV replicon reporter assay, genotype 4a. It counts as cell-based. As to conditions: Hepatitis C virus, 72 h, read-out: 4a (s) (nM). As to the method:
as §1, with “assays.” for “assays. To perform the assay for genotype 3 and 4, NS5A chimeric genotype 1b Conl replicons that encodes a Pi-RLuc reporter and either genotype 3a S52 strain NS5A gene or genotype 4a ED43 strain NS5A gene respectively, were transiently transfected (t) into Huh-Lunet cells, which were subsequently dispensed into 384-well plates.”

Series [3] deals with HCV 1a RLuc replicon cells (genotype 1a H77 replicon). In words: Renilla luciferase HCV replicon reporter assay, genotype 1a. As to conditions: stable replicon cells, 72 hours, RLuc readout. Type of series: cell-based. As to the method: (§3) Evaluation of cell-based anti-HCV activity: Antiviral potency (EC50) was determined using a Renilla luciferase (RLuc)-based HCV replicon reporter assay. To perform the assay for genotype 1 and 2a JFH-1, stable HCV 1a RLuc replicon cells (harboring a dicistronic genotype 1a H77 replicon that encodes a RLuc reporter), stable HCV 1b RLuc replicon cells (harboring a dicistronic genotype 1b Conl replicon that encodes a RLuc reporter), or stable HCV 2a JFH-1 Rluc replicon cells (harboring a dicistronic genotype 2a JFH-1 replicon that encodes a RLuc reporter; with L31 present in NS5A) were dispensed into 384-well plates for EC50 assays. To perform the assay for genotype 2a (with M31 present in NS5A) or 2b, NS5A chimeric genotype 2a JFH-1 replicons that encodes a RLuc-Neo reporter and either genotype 2a J6 strain NS5A gene or genotype 2b MD2b-1 strain NS5A gene (both with M31 present) respectively, were either transiently transfected (t) into Huh-Lunet cells or were established as stably replicating replicon cells (s) is provided. Either cells were dispensed into 384-well plates for EC50 assays. To perform the assay for genotype 3 and 4, NS5A chimeric genotype 1b Conl replicons that encodes a Pi-RLuc reporter and either genotype 3a S52 strain NS5A gene or genotype 4a ED43 strain NS5A gene respectively, were transiently transfected (t) into Huh-Lunet cells, which were subsequently dispensed into 384-well plates. Compounds were dissolved in DMSO at a concentration of 10 mM and diluted in DMSO either manually or using an automated pipeting instrument. Serially 3-fold diluted compounds were either manually mixed with cell culture media and added to the seeded cells or directly added to the cells using an automated instrument. DMSO was used as a negative (solvent; no inhibition) control, and the protease inhibitor ITMN-191 was included at a concentration >100×EC50 as a positive control. 72 hours later, cells were lysed and Renilla luciferase activity quantified as recommended by the manufacturer (Promega-Madison, Wis.). Non-linear regression was performed to calculate EC50 values.
Background: In antiviral work, replicon cells carry a viral genome segment that copies itself.

Series [4] relates to NS5A chimeric genotype 1b Conl replicon with genotype 3a S52 strain NS5A gene. In words: Renilla luciferase HCV replicon reporter assay, genotype 3a. It counts as cell-based. As to the method:
as §3

Series [5] deals with NS5A chimeric genotype 2a JFH-1 replicon with genotype 2b MD2b-1 strain NS5A gene (M31). The experiment in a line: Renilla luciferase HCV replicon reporter assay, genotype 2b. It counts as cell-based. As to the method:
as §3

The subject of series [6] is HCV 2a JFH-1 Rluc replicon cells (L31 present in NS5A). The experiment in a line: Renilla luciferase HCV replicon reporter assay, genotype 2a JFH-1. As to conditions: stable replicon cells, 72 hours. It counts as cell-based. As to the method:
as §3

The subject of series [7] is HCV 1b RLuc replicon cells (genotype 1b Conl replicon). In words: Renilla luciferase HCV replicon reporter assay, genotype 1b. Type of series: cell-based. As to conditions: stable replicon cells, 72 hours, RLuc readout. As to the method:
as §3

The subject of series [8] is Y93N in genotype 1a NS5A (1a Pi-Rluc replicon). The experiment in a line: Replicon assay against resistance mutant 1a Y93N. Type of series: cell-based, HCV. As to the method:
as §1, §2

Series [9] concerns the target NS5A chimeric genotype 2a JFH-1 replicon with genotype 2a J6 strain NS5A gene (M31). In words: Renilla luciferase HCV replicon reporter assay, genotype 2a J6. It counts as cell-based. As to conditions: transiently transfected (t) into Huh-Lunet cells, 72 hours. As to the method:
as §1, with “assays.” for “assays. To perform the assay for genotype 3 and 4, NS5A chimeric genotype 1b Conl replicons that encodes a Pi-RLuc reporter and either genotype 3a S52 strain NS5A gene or genotype 4a ED43 strain NS5A gene respectively, were transiently transfected (t) into Huh-Lunet cells, which were subsequently dispensed into 384-well plates.”

The subject of series [10] is Q30E in genotype 1a NS5A (1a Pi-Rluc replicon). The experiment in a line: Replicon assay against resistance mutant 1a Q30E. It counts as cell-based, HCV. As to conditions: transiently transfected Huh-7-derived cured-51 cells. As to the method: (§4) Evaluation of cell-based anti-HCV activity: Antiviral potency (EC50) was determined using a Renilla luciferase (RLuc)-based HCV replicon reporter assay. To perform the assay for genotype 1 and 2a JFH-1, stable HCV 1a RLuc replicon cells (harboring a dicistronic genotype 1a H77 replicon that encodes a RLuc reporter), stable HCV 1b RLuc replicon cells (harboring a dicistronic genotype 1b Conl replicon that encodes a RLuc reporter), or stable HCV 2a JFH-1 Rluc replicon cells (harboring a dicistronic genotype 2a JFH-1 replicon that encodes a RLuc reporter; with L31 present in NS5A) were dispensed into 384-well plates for EC50 assays. […] 72 hours later, cells were lysed and Renilla luciferase activity quantified as recommended by the manufacturer (Promega-Madison, Wis.). […]
as §2

Details of series [11]: species or system Sprague-Dawley (SD) rats. As to conditions: in vivo. As to the method: IV and PO Single Dose Pharmacokinetic Studies in SD Rats: The pharmacokinetics of selected compounds was characterized in male Sprague-Dawley (SD) rats (250-300 g). In this study, two groups of naïve purebred SD rats (N=3 per group, fasted over night) received the selected compound either as an intravenous (IV) infusion (1 mg/kg over 30 minutes) via the jugular vein or by oral gavage (2 mg/kg). The intravenous (IV) dosing vehicle was 5% ethanol, 35% polyethylene glycol 400 (PEG 400) and 60% water pH 2.0. The oral dosing vehicle was 5% ethanol, 55% PEG 400 and 40% citrate buffer pH 2.2.
Serial blood samples (approximately 0.3 mL each) were collected from jugular vein or other suitable vein at specified time points. […]
A bioanalytical method utilizing high performance liquid chromatography coupled to tandem mass spectrometry (LC/MS/MS) was developed for analysis of the selected compound in rat plasma. Detection was performed using selected reaction monitoring (SRM); Ions representing the precursor (M+H) ^+ species was selected in quadrupole 1 (Q1) and collided with argon gas in the collision cell (Q2) to generate specific product ion, which was subsequently monitored by quadrupole 3 (Q3). Standard curve and quality control samples were prepared in male rat plasma and processed in the same way as the test samples to generate quantitative data. […]

Series [12] deals with L31V/Y93H in genotype 1b NS5A (1b Pi-Rluc replicon). The experiment in a line: Replicon assay against resistance mutant 1b L31V/Y93H. Type of series: cell-based, HCV. As to conditions: transiently transfected Huh-7-derived cured-51 cells. As to the method:
as §4, §2

Where [13] appears, read: Hepatitis C virus, read-out: 3a Y93H (nM).
Where [14] appears, read: Hepatitis C virus, read-out: 1a Y93H (nM).
[15] abbreviates: Hepatitis C virus, 72 h, read-out: 3a (nM).
Setting [16] is: Hepatitis C virus, 72 h, read-out: 2b (s) (nM).
Where [17] appears, read: Hepatitis C virus, read-out: 1a Y93N (nM).

As to `COC(=O)N[C@H](C(=O)N1[C@@H](C)CC[C@H]1c1ncc(-c2cc3c4c(c2)OCc2cc(-c5cnc([C@@H]6CC[C@H](C)N6C(=O)[C@@H](NC(=O)OC)[C@H]6C[C@@H](C)O[C@@H](C)C6)[nH]5)cc(c2-4)OC3)[nH]1)C1C[C@@H](C)O[C@@H](C)C1` (stereo partly drawn) [Compound 16, dimethyl (r,S,R,1S,1′S)-2,2′-((2S,2′S,5S,5′S)-5,5′-(5,5′-(5,10-dihydrochromeno[5,4,3-cde]chromene-2,7-diyl)bis(1H-imidazole-5,2-diyl))bis(2-methylpyrrolidine-5,1-diyl))bis(1-((2R,4r,6S)-2,6-dimethyltetrahydro-2H-pyran-4-yl)-2-oxoethane-2,1-diyl)dicarbamate], the EC50 is 0.145 nM in the series with 3a Y93H (setting [13]); 0.356 nM in series [1] (setting [14]); 0.025 nM in series [2]; 0.043 nM in series [3] (Hepatitis C virus); 0.051 nM in [4] (setting [15]); 0.054 nM in [5] (setting [16]). Also, the EC50 in [6] (Hepatitis C virus) was 0.013 nM; in series [7] (Hepatitis C virus) it was 0.037 nM; in series [8] (setting [17]) it was 0.685 nM.

Turning to `COC(=O)N[C@H](C(=O)N1[C@@H](C)CC[C@H]1c1ncc(-c2cc3c4c(c2)OCc2cc(-c5cnc([C@@H]6CC[C@H](C)N6C(=O)[C@@H](NC(=O)OC)C6C[C@@H](C)O[C@H](C)C6)[nH]5)cc(c2-4)OC3)[nH]1)C1C[C@@H](C)O[C@H](C)C1` (stereo partly drawn) [Compound 14, dimethyl (R,R,1S,1′S)-2,2′-((2S,2′S,5S,5′S)-5,5′-(5,5′-(5,10-dihydrochromeno[5,4,3-cde]chromene-2,7-diyl)bis(1H-imidazole-5,2-diyl))bis(2-methylpyrrolidine-5,1-diyl))bis(1-((2R,6R)-2,6-dimethyltetrahydro-2H-pyran-4-yl)-2-oxoethane-2,1-diyl)dicarbamate], the EC50 in series [9] turned out to be 0.014 nM; in the series with 3a Y93H (resistance mutant replicon, read-out: 3a Y93H), 0.157 nM; in series [1] (transiently transfected Huh-7-derived cured-51 cells, read-out: 1a Y93H) it was 0.063 nM; in [3], 0.049 nM; in series [10] it was 0.11 nM; in series [4] (transiently transfected into Huh-Lunet cells, 72 hours, read-out: 3a), 0.04 nM. For the same compound, the EC50 in [5] (transiently transfected (t) into Huh-Lunet cells, 72 hours, read-out: 2b (t)) turned out to be 0.038 nM; in series [6], 0.011 nM; in series [7], 0.054 nM; in series [8] (transiently transfected Huh-7-derived cured-51 cells, read-out: 1a Y93N) it was 0.229 nM; in series [12], 0.075 nM. Besides, the “Rat % F” value in [11] turned out to be 15%.

On to `COC(=O)N[C@H](C(=O)N1CCC[C@H]1c1ncc(-c2cc3c4c(c2)OCc2cc(-c5cnc([C@@H]6CCCN6C(=O)[C@@H](NC(=O)OC)C6C[C@@H](C)O[C@H](C)C6)[nH]5)cc(c2-4)OC3)[nH]1)C1C[C@@H](C)O[C@H](C)C1` (stereo partly drawn) [Compound 15, dimethyl ((1S,1′S)-((2S,2′S)-((5,10-dihydrochromeno [5,4,3-cde]chromene-2,7-diyl)bis(1H-imidazole-5,2-diyl))bis(pyrrolidine-2,1-diyl))bis(1-((2R,6R)-2,6-dimethyltetrahydro-2H-pyran-4-yl)-2-oxoethane-2,1-diyl))dicarbamate], for which the EC50 in the series on 3a Y93H (setting [13]) was found to be 0.361 nM; in series [1] (setting [14]), 0.237 nM; in [2] it was 0.07 nM; in series [3] (Hepatitis C virus) it was 0.18 nM; in series [4] (setting [15]), 0.199 nM; in [5] (setting [16]), 0.143 nM. In addition, the values for the EC50 in [6] (Hepatitis C virus), in series [7] (Hepatitis C virus) and in series [8] (setting [17]) were 0.024 nM, 0.195 nM and 0.87 nM, respectively.
